Literature values as cited in US7001904B1, “Guanidine derivatives quinazoline and quinoline for use in the treatment of autoimmune diseases” (AstraZeneca AB, priority 2000, dated 2006).

Target: EGF RTK (Homo sapiens, UniProt P00533)
Conditions: Bioorganic & Medicinal Chemistry Letters, 1997, 7, 2723–2728

EGF RTK, sequence (P00533 25-1210): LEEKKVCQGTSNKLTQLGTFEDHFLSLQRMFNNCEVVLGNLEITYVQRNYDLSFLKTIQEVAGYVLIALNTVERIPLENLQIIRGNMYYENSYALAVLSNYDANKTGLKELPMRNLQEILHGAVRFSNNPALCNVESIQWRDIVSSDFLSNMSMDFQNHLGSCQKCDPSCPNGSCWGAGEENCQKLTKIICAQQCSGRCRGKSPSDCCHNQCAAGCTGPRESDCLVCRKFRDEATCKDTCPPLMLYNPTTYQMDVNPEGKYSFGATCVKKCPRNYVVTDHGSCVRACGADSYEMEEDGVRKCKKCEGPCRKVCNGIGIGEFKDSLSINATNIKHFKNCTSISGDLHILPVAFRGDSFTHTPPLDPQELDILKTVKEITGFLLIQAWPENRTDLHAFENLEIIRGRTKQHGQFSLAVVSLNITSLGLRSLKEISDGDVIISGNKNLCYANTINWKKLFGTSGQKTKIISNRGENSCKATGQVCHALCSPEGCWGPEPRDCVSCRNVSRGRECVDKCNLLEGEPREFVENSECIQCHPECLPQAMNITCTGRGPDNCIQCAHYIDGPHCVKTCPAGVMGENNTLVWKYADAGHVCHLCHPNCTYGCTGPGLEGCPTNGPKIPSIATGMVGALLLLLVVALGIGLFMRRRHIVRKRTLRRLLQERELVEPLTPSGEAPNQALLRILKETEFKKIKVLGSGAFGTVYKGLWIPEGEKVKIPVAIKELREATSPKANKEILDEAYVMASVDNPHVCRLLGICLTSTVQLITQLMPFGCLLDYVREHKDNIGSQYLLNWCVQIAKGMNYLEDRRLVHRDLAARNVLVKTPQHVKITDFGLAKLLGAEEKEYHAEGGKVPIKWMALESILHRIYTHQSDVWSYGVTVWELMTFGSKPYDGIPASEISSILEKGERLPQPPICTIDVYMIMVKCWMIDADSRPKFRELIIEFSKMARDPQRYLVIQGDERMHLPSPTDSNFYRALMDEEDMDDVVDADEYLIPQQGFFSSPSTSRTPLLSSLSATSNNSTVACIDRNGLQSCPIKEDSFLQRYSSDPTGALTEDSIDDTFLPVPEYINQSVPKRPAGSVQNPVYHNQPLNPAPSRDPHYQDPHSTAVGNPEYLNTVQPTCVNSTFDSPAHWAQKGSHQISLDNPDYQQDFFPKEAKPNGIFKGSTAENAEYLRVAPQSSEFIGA

Compound: COc1cc2ncnc(NC(=O)Nc3ccccc3)c2cc1OC [1-(6,7-dimethoxyquinazolin-4-yl)-3-phenylurea]
- EGF RTK inhibition: inactive
